Experiments:
Settings in all cases: compound at 10 μM
[1] = system: Imidazoline I2 (Central) Receptor; test: Radioligand binding, [3H] Idazoxan, cerebral cortex; design: species or system Wistar rat
Protocol: (§1) Compounds of the invention were subjected to specific binding assays to test their ability to bind to the receptors and transporter proteins described below.
(k) Imidazoline I2 (Central) Receptor:
• Reference: Brown et al., Brit. J. Pharmacol., 99:803-809, (1990) • Source: Wistar rat cerebral cortex • Ligand: 2 nM [^3H]

[2] = molecular target: T1, Dopamine D2S Receptor (Homo sapiens, UniProt P14416); test: Radioligand binding, [3H] Spiperone
T1 construct: expressed in transfected cells; host or cells: CHO cells
T1 sequence (P14416 1-414 isoform P14416-2): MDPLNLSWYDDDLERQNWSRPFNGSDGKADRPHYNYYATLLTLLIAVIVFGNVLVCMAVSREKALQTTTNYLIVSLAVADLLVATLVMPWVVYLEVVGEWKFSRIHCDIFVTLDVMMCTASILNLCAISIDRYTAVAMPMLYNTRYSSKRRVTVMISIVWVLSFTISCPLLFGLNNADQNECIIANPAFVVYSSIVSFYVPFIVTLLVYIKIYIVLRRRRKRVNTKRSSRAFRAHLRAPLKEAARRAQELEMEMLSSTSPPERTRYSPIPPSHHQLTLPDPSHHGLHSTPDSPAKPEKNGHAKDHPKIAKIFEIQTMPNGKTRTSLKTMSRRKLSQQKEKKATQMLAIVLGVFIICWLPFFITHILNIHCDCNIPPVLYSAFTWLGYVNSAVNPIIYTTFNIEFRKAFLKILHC
Protocol: as §1
(f) Dopamine D2S Receptor:
(§2) • Reference: Grandy et al., Proc. Natl. Acad. Sci. USA, 86:9762-9766 (1989) • Source: Human recombinant CHO cells • Ligand: 0.16 nM [^3H]

[3] = molecular target: T2, Adrenergic α2A Receptor (Homo sapiens, UniProt P08913); test: Radioligand binding, [3H] MK-912
T2 construct: expressed in transfected cells; host or cells: insect Sf9 cells
T2 sequence (P08913 1-465): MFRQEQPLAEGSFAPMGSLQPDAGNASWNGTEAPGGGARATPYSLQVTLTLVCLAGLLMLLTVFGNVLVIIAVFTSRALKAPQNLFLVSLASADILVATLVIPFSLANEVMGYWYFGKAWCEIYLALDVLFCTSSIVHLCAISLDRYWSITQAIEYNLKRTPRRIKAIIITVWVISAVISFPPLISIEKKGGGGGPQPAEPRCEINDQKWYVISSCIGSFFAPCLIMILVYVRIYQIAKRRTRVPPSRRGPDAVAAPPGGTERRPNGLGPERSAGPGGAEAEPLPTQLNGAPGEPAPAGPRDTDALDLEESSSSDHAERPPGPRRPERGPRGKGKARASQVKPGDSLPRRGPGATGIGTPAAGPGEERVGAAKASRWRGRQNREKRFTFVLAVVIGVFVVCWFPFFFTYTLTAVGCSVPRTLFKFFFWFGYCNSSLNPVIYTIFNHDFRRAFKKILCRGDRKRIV
Protocol: as §1
(a) Adrenergic α2A Receptor:
(§3) • Reference: S. Uhlçn et al. J. Pharmacol. Exp. Ther., 271:1558-1565 (1994) • Source: Human recombinant insect Sf9 cells • Ligand: 1 nM [^3H]

[4] = molecular target: T3, Dopamine D3 Receptor (Homo sapiens, UniProt P35462); test: Radioligand binding, [3H] Spiperone
T3 construct: expressed in transfected cells; host or cells: CHO cells
T3 sequence (P35462 whole entry): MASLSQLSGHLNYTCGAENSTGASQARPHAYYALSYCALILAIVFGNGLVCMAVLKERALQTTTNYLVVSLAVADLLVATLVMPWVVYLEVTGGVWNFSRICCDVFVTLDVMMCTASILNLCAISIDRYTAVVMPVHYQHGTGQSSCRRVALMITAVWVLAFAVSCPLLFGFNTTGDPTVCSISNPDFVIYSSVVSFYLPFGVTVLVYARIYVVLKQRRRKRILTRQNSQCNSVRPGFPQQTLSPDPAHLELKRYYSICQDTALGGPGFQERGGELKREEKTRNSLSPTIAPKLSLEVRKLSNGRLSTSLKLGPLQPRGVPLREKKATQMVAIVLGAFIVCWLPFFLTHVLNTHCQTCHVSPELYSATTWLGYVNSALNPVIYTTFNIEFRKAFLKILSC
Protocol: as §1
(g) Dopamine D3 Receptor:
• Reference: Sokoloff et al., Nature, 347:146-151, (1990) • Source: Human recombinant CHO cells • Ligand: 0.7 nM [3H]

[5] = molecular target: T4, Sigma σ1 Receptor (Homo sapiens, UniProt Q99720); test: Radioligand binding, [3H] Haloperidol, jurkat cells
T4 construct: Source: Human jurkat cells; endogenous in cells; host or cells: Jurkat cells
T4 sequence (Q99720 whole entry): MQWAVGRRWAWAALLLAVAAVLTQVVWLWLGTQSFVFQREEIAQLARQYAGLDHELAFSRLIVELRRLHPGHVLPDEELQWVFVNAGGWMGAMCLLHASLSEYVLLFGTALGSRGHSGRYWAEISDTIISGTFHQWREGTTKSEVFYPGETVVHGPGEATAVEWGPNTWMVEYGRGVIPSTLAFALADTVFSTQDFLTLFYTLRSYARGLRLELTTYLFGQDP
Protocol: as §1
• Reference: Ganaphthy et al., Pharmacol. Exp. Ther., 289:251-260, (1999) • Source: Human jurkat cells • Ligand: 8 nM [3H]

[6] = molecular target: T5, Adrenergic α2C Receptor (Homo sapiens, UniProt P18825); test: Radioligand binding, [3H] MK-912
T5 construct: expressed in transfected cells; host or cells: insect Sf9 cells
T5 sequence (P18825 1-462): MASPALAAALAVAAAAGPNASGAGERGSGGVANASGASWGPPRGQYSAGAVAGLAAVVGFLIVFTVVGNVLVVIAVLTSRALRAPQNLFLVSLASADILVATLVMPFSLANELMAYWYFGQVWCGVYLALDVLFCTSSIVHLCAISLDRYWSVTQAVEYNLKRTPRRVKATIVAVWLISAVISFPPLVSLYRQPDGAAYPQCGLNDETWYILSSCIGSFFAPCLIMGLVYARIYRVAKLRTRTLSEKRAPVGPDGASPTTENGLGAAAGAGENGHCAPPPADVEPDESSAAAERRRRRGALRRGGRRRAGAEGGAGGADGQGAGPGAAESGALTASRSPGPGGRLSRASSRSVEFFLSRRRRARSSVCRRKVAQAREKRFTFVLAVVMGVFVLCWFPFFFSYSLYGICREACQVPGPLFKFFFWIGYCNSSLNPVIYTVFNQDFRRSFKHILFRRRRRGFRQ
Protocol: as §1
(c) Adrenergic α2C Receptor:
as §3

[7] = molecular target: T6, Dopamine D2L Receptor (Homo sapiens, UniProt P14416); test: Radioligand binding, [3H] Spiperone
T6 construct: expressed in transfected cells; host or cells: CHO cells
T6 sequence (P14416 whole entry): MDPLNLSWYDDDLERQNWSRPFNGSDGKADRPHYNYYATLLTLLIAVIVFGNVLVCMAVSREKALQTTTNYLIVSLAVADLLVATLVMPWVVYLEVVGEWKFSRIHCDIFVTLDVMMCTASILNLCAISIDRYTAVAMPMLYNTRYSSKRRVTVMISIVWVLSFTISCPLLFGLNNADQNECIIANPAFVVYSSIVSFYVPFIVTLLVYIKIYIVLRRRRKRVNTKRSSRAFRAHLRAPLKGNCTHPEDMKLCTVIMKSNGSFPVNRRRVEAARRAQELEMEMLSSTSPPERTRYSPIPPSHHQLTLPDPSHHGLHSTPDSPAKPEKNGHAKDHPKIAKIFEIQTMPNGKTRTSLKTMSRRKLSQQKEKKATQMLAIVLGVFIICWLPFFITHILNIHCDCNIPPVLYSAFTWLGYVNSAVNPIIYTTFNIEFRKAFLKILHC
Protocol: as §1
(e) Dopamine D2L Receptor:
as §2

[8] = system: Dopamine D4.7 Receptor; test: Radioligand binding, [3H] Spiperone; design: species or system Human
Protocol: as §1
(j) Dopamine D4.7 Receptor:
• Reference: Van Tol et al., Nature, 350:610-614 (1991) • Source: Human recombinant CHO-K1 cells • Ligand: 1.5 nM [^3H]

[9] = molecular target: T7, Dopamine D1 Receptor (Homo sapiens, UniProt P21728); test: Radioligand binding, [3H] SCH-23390
T7 construct: expressed in transfected cells; host or cells: CHO cells
T7 sequence (P21728 whole entry): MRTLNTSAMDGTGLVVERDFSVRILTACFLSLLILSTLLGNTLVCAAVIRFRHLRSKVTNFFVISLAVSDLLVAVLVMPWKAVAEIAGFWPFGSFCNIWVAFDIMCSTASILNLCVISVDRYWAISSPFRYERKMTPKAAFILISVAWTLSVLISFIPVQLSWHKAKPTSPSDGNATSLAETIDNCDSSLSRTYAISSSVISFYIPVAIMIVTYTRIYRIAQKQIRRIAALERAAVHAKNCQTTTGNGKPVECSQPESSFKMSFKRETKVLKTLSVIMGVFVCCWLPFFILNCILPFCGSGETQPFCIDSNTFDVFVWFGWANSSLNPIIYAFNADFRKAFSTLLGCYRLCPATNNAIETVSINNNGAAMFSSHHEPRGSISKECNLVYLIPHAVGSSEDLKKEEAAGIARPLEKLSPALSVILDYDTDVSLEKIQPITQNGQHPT
Protocol: as §1
(d) Dopamine D1 Receptor:
• Reference: Dearry et al., Nature, 347:72-76, (1990) • Source: Human recombinant CHO cells • Ligand: 1.4 nM [3H] SCH-23390 • Vehicle: 1% DMSO • Incubation time/Temp: 2 hours @ 37° C. • Incubation buffer: 50 mM Tris-HCl, pH 7.4, 150 mM NaCl, 1.4 mM ascorbic acid, 0.001% BSA • Non Specific ligand: 10 μM (+)-butaclamol • Kd: 1.4 nM • Bmax: 0.63 pmole/mg protein • Specific binding: 90% • Quantitation method: Radioligand binding • Significance criteria: ≧50% of maximum stimulation or inhibition

[10] = system: Imidazoline I2 (Peripheral) Receptor; test: Radioligand binding, [3H] Idazoxan, kidney; design: species or system Wistar rat
Protocol: as §1
(I) Imidazoline I2 (Peripheral) Receptor:
• Reference: Brown et al., Brit. J. Pharmacol., 99:803-809, (1990) • Source: Wistar rat kidney • Ligand: 5 nM [^3H]

% inhibition, (k) I2 Receptor (central) [1] | % inhibition, (f) D2S Receptor [2] | % inhibition, (a) α2A Receptor [3] | % inhibition, (g) D3 Receptor [4] | % inhibition, (m) σ1 Receptor [5] | % inhibition, (c) α2C Receptor [6] | % inhibition, (e) D2L Receptor [7] | % inhibition, (j) D4.7 Receptor [8] | % inhibition, (d) D1 Receptor [9] | % inhibition, (l) I2 Receptor (peripheral) [10] | Compound
24% | 63% | 13% | 65% | 83% | −7% | 54% | 25% | 29% | 24% | COc1cc2c(cc1O)[C@@H]1C[C@@H](O)[C@H](CC(C)C)CN1CC2 (single isomer, unassigned) [(+)-10-desmethyl-γ-dihydrotetrabenazine]
66% | 98% | 69% | 101% | 55% | 60% | 98% | 87% | 96% | 25% | COc1cc2c(cc1O)[C@@H]1C[C@@H](O)[C@H](CC(C)C)CN1CC2 (single isomer, unassigned) [(−)-10-desmethyl-γ-dihydrotetrabenazine]

— patent US20100087475A1, “PHARMACEUTICAL COMPOUNDS” (Biovali Laboratories International (Barbados) S.R.L., priority 2008, published 2010)
